Test results from patent US4895846A, “Pharmaceutically useful dihydropyridinyldicarboxylate amides and esters incorporating arylpiperazinylalkyl moieties” (Bristol-Myers Company, priority 1987, dated 1990).
In brackets after ≈: the same amount, converted by molar mass.

Legend:
[1] = test system: blood platelets in platelet rich plasma; assay: Collagen aggregation of blood platelets in platelet rich plasma; format: cell-based; conditions: Oryctolagus cuniculus; platelet rich plasma (rabbit)
[2] = test system: normotensive and spontaneously hypertensive conscious rats; assay: Oral administration to normotensive and spontaneously hypertensive conscious rats, mean arterial blood pressure; format: in vivo, rat; conditions: for maximal mean arterial blood pressure reduction: oral
Description: In vivo testing included vasodilating results in the ganglion-blocked, angiotensin-II supported rat and antihypertensive screening in either the spontaneous hypertensive rat (SHR) or DOCA salt rats. In general, vasodilating activity paralleled calcium blocking activity for members of the instant series. […] A most preferred compound, BMY 20064 [drawing 21] was administered orally to both normotensive and spontaneously hypertensive conscious rats. Doses of 1 and 10 mg/kg elicited maximal mean arterial blood pressure reductions of 25 and 53 mmHg, respectively, in the normotensive rat group and 34 and 100 mmHg, respectively, in the spontaneously hypertensive rat group.

With `COC(=O)C1=C(C)NC(C)=C(C(=O)OCCCN2CCN(c3ccccc3OC)CC2)C1c1cccc([N+](=O)[O-])c1` (stereo not drawn) [BMY 20064] the EC50 [1] was 11 µg/mL (≈ 19.5 µM), the “onset of mean arterial blood pressure response” value ([2]; both groups (normotensive and SHR), oral 1 and 10 mg/kg) was under 10 min and the “persistence of mean arterial blood pressure response” value ([2]; both groups, after the higher dose (10 mg/kg oral)) was over 4 h. The “maximal mean arterial blood pressure reduction” value ([2]; normotensive conscious rats, 1 mg/kg) was 25 mmHg, the “maximal mean arterial blood pressure reduction” value ([2]; normotensive conscious rats, 10 mg/kg) was 53 mmHg and the “maximal mean arterial blood pressure reduction” value ([2]; spontaneously hypertensive conscious rats, 1 mg/kg) was 34 mmHg. The “maximal mean arterial blood pressure reduction” value ([2]; spontaneously hypertensive conscious rats, 10 mg/kg) was 100 mmHg.
`COC(=O)C1=C(C)NC(C)=C(C(=O)OC)C1c1ccccc1[N+](=O)[O-]` [Nifedipine, 4-(2'-nitrophenyl)-2,6-dimethyl-3,5-dicarbomethoxy-1,4-dihydropyridine] was tested, and the EC50 [1] was 176 µg/mL (≈ 508 µM).
Work on `COc1ccc(CCN(C)CCCC(C#N)(c2ccc(OC)c(OC)c2)C(C)C)cc1OC` (stereo not drawn) [Verapamil] yielded an EC50 [1] of 151 µg/mL (≈ 332 µM).
